The record followed here is a melting point compilation (Tetko et al.).

For orientation: melting point means the temperature of the solid-liquid transition. Compound `Cc1ccc(O)c(-n2nc3ccccc3n2)c1` had a melting point of 132 °C.
The value for `O=C(O)c1cccc(Br)c1F` was 169 °C; that for `C=C1CC(=CC)C(=O)OC2CCN3CC=C(COC(=O)C1(C)O)C23` (stereo not given) was 218 °C; that for `CN(C)c1ccc(C=C2C(=O)NC(=O)NC2=O)cc1` was 245 °C.
In the case of `Cc1cccc2c1C/C2=N/Nc1ccc([N+](=O)[O-])cc1[N+](=O)[O-]`, the melting point turned out to be 227 °C.
The result for `FC(Cl)(Cl)C(Cl)(Cl)Cl` reads 101 °C; that for `CN(C)CCCCN(C)C`, -100 °C.
`CNC(=O)C=C(C)OP(=O)(OC)OC`: the melting point was 55 °C.
The result for `Cc1cc(C(=O)O)n(C(C)(C)C)n1` reads 149 to 153 °C.
The value for `Cc1cc2c3c(c1)c(O)c(-c1ccccc1)c(=O)n3CCC2` was 215 to 218 °C; that for `O=C(O)c1cc2cc(F)ccc2[nH]1` was 254 to 258 °C; that for `Cc1ccc(Nc2ccc([N+](=O)[O-])cc2N)cc1` was 160 °C.
The value for `O=S(=O)(O)c1ccc(N=Nc2ccc(N=Nc3ccc(S(=O)(=O)O)cc3)cc2)cc1` was 157 °C; that for `O=[N+]([O-])c1ccc2[nH]c3c(c2c1)CCN(Cc1ccccc1)C3` was 213 to 214 °C.
In the case of `CN(C)c1ccc(/C=C(\C(N)=O)c2nc3ccccc3s2)cc1`, the melting point turned out to be 210 °C.
The result for `Cc1ccc(C(=O)CBr)c(C)c1` reads 44 °C; that for `CCCC(C)(N)P(=O)(O)O` (stereo not given), 258 to 262 °C.
The result for `COc1ccc(N(CCCC(=O)O)C(=O)c2ccc(Cl)cc2)cc1` reads 116 °C; that for `CCNC(N)=S`, 112 °C; that for `O=[N+]([O-])c1cc([N+](=O)[O-])c(Cl)cc1Cl`, 101 °C.
Compound `Clc1nccnc1Cl` registered a melting point of 22.5 to 24.5 °C.
`CC1(C)SC2C(NC(=O)C(N)c3ccccc3)C(=O)N2C1C(=O)O` (stereo not given) displayed a melting point of 208 °C.
`N#C/C(=C\c1ccc(Cl)cc1)c1nc2ccccc2s1`: the melting point turned out to be 150 °C.
The value for `COc1ccc(-c2csc(/C(C#N)=C\c3cccs3)n2)cc1` was 140 °C.
As to `CCOC=Nc1c(C#N)cnn1-c1ncnc2c1cnn2C`, the melting point came to 155 °C.
Compound `O=c1c(N2CCCC2)c(N2CCOCC2)c1=O` returned a melting point of 251 to 254 °C.
`CCOC(=O)C(C#N)=C(SCc1ccccc1)SCc1ccccc1` registered a melting point of 82 °C.
Turning to `CC(N)P(=O)(O)O` (racemic), the melting point lay within 283 to 284 °C.
The value for `CCOC(=O)c1c(C)n[nH]c1C` was 118 to 119 °C; that for `NC(CS(=O)(=O)Cc1ccc(F)cc1)=NO` was 182 to 185 °C; that for `O=C(CCl)c1ccc(C(=O)C(Cl)Cl)cc1` was 147 °C.
As to `COc1ccc(C#N)cc1OC`, the melting point was 67 °C.
The result for `Brc1cccc(-n2cccc2)c1` reads 63 to 64 °C; that for `COc1ccc2c(c1)C(=O)N(CCc1ccc(S(=O)(=O)NC(=O)NC3CCCCC3)cc1)C(=O)C2(C)C`, 181 °C; that for `Nc1nc(N)c2nc[nH]c2n1`, 302 °C.
The value for `CC(C)(C)OC[C@H](NC(=O)OCC1c2ccccc2-c2ccccc21)C(=O)O` was 127 to 131 °C; that for `Cn1cc(Br)c(N)n1` was 98 °C.
Compound `COc1c(OC)c(OC(C)=O)c2cc(Cl)ccc2c1OC(C)=O` showed a melting point of 91.5 °C.
Compound `COC(=O)c1cc2ccsc2[nH]1` returned a melting point of 127 to 129 °C.
For the compound `O=C(CS(=O)(=O)c1ccccc1)c1ccccc1`, the melting point was 92 to 95 °C.
Regarding `CC(O)CO` (stereo not given), the melting point was -60 °C.
For `Cc1ccc2[nH]ccc2c1`, the melting point is 60 °C.
The result for `[O-][P+](c1ccccc1)(c1ccccc1)C1C=C(c2ccccc2)OC(c2ccccc2)=C1` reads 176 °C.
The result for `Cc1cccc(NC(=O)c2ccccc2)c1` reads 125 °C.
For the compound `O=CF`, the melting point was -142 °C.
The value for `CC(=O)NS(=O)(=O)c1ccc(NC(=O)c2ccccc2C(=O)O)cc1` was 196 °C; that for `O=[N+]([O-])c1cccc(SSc2cccc([N+](=O)[O-])c2)c1` was 84 °C; that for `COC(=O)c1cc(Cl)ccc1Br` was 39 °C.
As for `COc1c(C#N)cc(C)c2c1CCC2`, the melting point lay in the range of 62 to 63 °C.
The value for `O=P(N1CC1)(N1CC1)N(N=Cc1ccccc1)c1ccccc1` was 114 °C; that for `COc1ccc([N+](=O)[O-])c(Cl)n1` was 78 to 80 °C; that for `CC(C)(C)OC(=O)N1CCN(c2ccccc2CO)CC1` was 67 to 71 °C.
The value for `Nc1c(O)cccc1C(=O)O` was 240 °C; that for `CCC(=O)C(CC(C)N1CCOCC1)(c1ccccc1)c1ccccc1` (stereo not given) was 75 °C; that for `CCC(O)(COC(N)=O)c1ccccc1` (stereo not given) was 55 °C.
The result for `N#CC(=NOCC1OCCO1)c1ccccc1` reads 77.7 °C.
On to `Cc1nc(-c2cccc(N)c2)cs1`, for which the melting point is 101 to 103 °C.
The result for `NC(CC(=O)O)c1ccc(Cl)cc1` (stereo not given) reads 243 to 245 °C; that for `O=C1Nc2ccccc2/C1=C/c1ccccc1[N+](=O)[O-]`, 82 °C; that for `CC(C)(C)C(=O)Nc1ccncc1C=O`, 60 to 64 °C.
The value for `NC(=O)Nc1ccc(Cl)cc1` was 206 °C; that for `CCc1nc(CC)nc(NS(=O)(=O)c2ccc(N)cc2)n1` was 187 °C; that for `CCCCC(CC)COC(=O)OOC(C)(C)C` (stereo not given) was -50 °C.
Take `CN1CCOc2cc(Br)ccc21`: the melting point is 47 to 49 °C.
The value for `CC(C)(C)c1cc(C(=O)NN)[nH]n1` was 177 to 181 °C; that for `Oc1ccc(F)c2cccnc12` was 110 °C; that for `NC(=O)C12CC3CC(CC(C3)C1)C2` was 189 °C.
The value for `C=CC(OC(C)=O)OC(C)=O` was -37.6 °C; that for `N#CCCN1CCCCC1` was -6.8 °C; that for `O=C(O)C(CBr)CBr` was 100 °C.
The result for `ClCCOCOCCCl` reads -32 °C; that for `CC(C)[C@H](N)C(O)(c1ccccc1)c1ccccc1`, 92 °C.
Take `NN(c1ccccc1)c1ccccc1`: the melting point was determined as 50.5 °C.
`N=c1oc2ccccc2cc1-c1nc2ccccc2s1` came in with a melting point of 186 °C.
In turn, `CCOC(=O)C1(S(=O)(=O)c2ccc(C)cc2)CC1` yielded a melting point of 75.5 °C.
Compound `O=C(Nc1ccc2ncccc2c1)Nc1ccc2ncccc2c1` showed a melting point of 262 °C.
The value for `NC(Cc1ccc(F)cc1F)C(=O)O` (racemic) was 224 to 226 °C.
In turn, `CC1CN(c2ccccc2)NC1=O` (stereo not given) registered a melting point of 133 to 136 °C.
`CCOC(=O)c1sc(-c2ccc(C)cc2)nc1O` registered a melting point of 128 to 130 °C.
The compound `CC1(O)C(=O)CC2CC1C2(C)C` (stereo not given) came in with a melting point of 38.5 °C.
The result for `CC1=C(C(=O)OCc2ccccc2)C(c2cccc([N+](=O)[O-])c2)NC(=S)N1` (stereo not given) reads 176 °C; that for `CC(C)=NNC(=O)c1cc(C)on1`, 244 to 246 °C; that for `ClC#CCl`, -66 °C.
On to `O=C(N[C@@H](Cc1ccccc1)C(=O)O)OCC1c2ccccc2-c2ccccc21`, for which the melting point fell in the range of 183 to 187 °C.
Compound `O=Cc1ccc(-c2ccc(F)c(C(F)(F)F)c2)o1` yielded a melting point of 89 to 91 °C.
With `O=C(c1ccc(F)cc1)c1ccc([N+](=O)[O-])cc1`, the melting point is 87 to 89 °C.
The value for `CCCCC(C)CCO` (stereo not given) was -90 °C; that for `CSc1nnc(C(C)(C)C)c(=O)n1N=CC(C)C` was 159 °C; that for `CCOC(=O)c1sc(-c2cccc(N)c2)nc1C` was 84 °C.
The value for `COc1ccc(C(=O)CBr)c(OC)c1` was 104 °C; that for `Cc1nc(-c2cnccn2)sc1C(=O)CBr` was 100 °C; that for `CCOC(=O)c1cc(I)c(N)c(I)c1` was 145 to 146 °C.
With `Cc1ccc(C(C=O)C=O)cc1`, the melting point was in the range of 128 to 134 °C.
Compound `CN1c2ccccc2Sc2ccc(CC(=O)O)cc21` had a melting point of 146 °C.
The result for `O=C(O)/C=C/c1cc2c(cc1CC(=O)O)NC(=O)CC2` reads 234 °C.
The result for `NCC[C@H](O)C(=O)O` reads 200 to 203 °C; that for `O=[N+]([O-])c1ccc(-c2nnc3n2CN(c2ccccn2)CS3)cc1`, over 300 °C.
The result for `CC(=O)c1ccc(NC(=O)C(C(F)(F)F)C(F)(F)F)cc1` reads 174 °C.
Compound `Cn1ccc2c(C#N)cccc21` came in with a melting point of 41 to 43 °C.
The value for `O=C(Nc1cc2c(cc1/C=C/c1ccccc1)CC(c1ccccc1)N2C(=O)c1ccccc1)c1ccccc1` (stereo not given) was 250 °C; that for `O=S(=O)(Cl)c1ccc(Oc2ccccc2)cc1` was 44 °C.
The value for `COC(CNC(c1ccccc1)C(O)c1ccccc1)OC` (stereo not given) was 145 °C; that for `CC1(C)OCC2OC3(C(=O)O)OC(C)(C)OC3C2O1` (stereo not given) was 92 °C.
`COC(=O)c1cc(N)cc(N)c1` showed a melting point of 133 °C.
The value for `COc1ccc(C=O)cc1F` was 35 °C; that for `CSc1nc(N)nc(C(C)(C)C)n1` was 102 to 104 °C.
The value for `C[Si]1(C)Oc2ccc3ccccc3c2-c2c(ccc3ccccc23)O[Si](C)(C)O1` was 173 °C; that for `Cc1cccc(NC(=O)C(F)(F)C(F)(F)C(F)(F)C(F)(F)C(F)(F)C(F)(F)C(F)(F)C(F)(F)F)c1` was 97 °C; that for `Cc1nn(-c2ccccc2)nc1C(=O)NNC(=S)Nc1ccccc1` was 205 to 206 °C.
As for `CC(=O)Nc1ccccc1/C=C/c1cc(C)c([N+](=O)[O-])cc1[N+](=O)[O-]`, the melting point came out at 252 °C.
